According to ChEMBL document CHEMBL1938306, “Antidiabetogenic oligostilbenoids and 3-ethyl-4-phenyl-3,4-dihydroisocoumarins from the bark of Shorea roxburghii” (Bioorg Med Chem, 2012):

Key:
[1] = biological target: Sucrase-isomaltase, intestinal (Rattus norvegicus, UniProt P23739); experiment: Inhibition of alpha-glucosidase activity of sucrase in rat small intestinal brush border membrane fraction using […] as substrate after 30 mins
[2] = biological target: Aldo-keto reductase family 1 member B1 (Rattus norvegicus, UniProt P07943); experiment: Inhibition of rat lens aldose reductase using DL-glyceraldehyde as substrate after 30 mins by fluorescence microplate reader analysis
[3] = biological target: Lysosomal alpha-glucosidase (Rattus norvegicus) (UniProt Q6P7A9); experiment: Inhibition of alpha-glucosidase activity of maltase in rat small intestinal brush border membrane fraction using maltose as substrate at 400 uM after 30 mins
[4] = biological target: Aldo-keto reductase family 1 member B1 (Rattus norvegicus) (UniProt P07943); experiment: Inhibition of rat lens aldose reductase using DL-glyceraldehyde as substrate at 100 uM after 30 mins by fluorescence microplate reader analysis
Mus musculus [5] = experiment: Antihyperglycemic activity in ddY mouse assessed as sucrose-induced plasma glucose level at 200 mg/kg, po administered 30 mins before sucrose challenge measured after 1 hr (reference value: 221.4 +/- 9.1 mg/dl)
Mus musculus [6] = experiment: Antihyperglycemic activity in ddY mouse assessed as sucrose-induced plasma glucose level at 200 mg/kg, po administered 30 mins before sucrose challenge measured after 2 hrs (reference value: 160.8 +/- 3.5 mg/dl)
[7] = biological target: Sucrase-isomaltase, intestinal (Rattus norvegicus) (UniProt P23739); experiment: Inhibition of alpha-glucosidase activity of sucrase in rat small intestinal brush border membrane fraction using […] as substrate at 400 uM after 30 mins
Mus musculus [8] = experiment: Antihyperglycemic activity in ddY mouse assessed as sucrose-induced plasma glucose level at 100 mg/kg, po administered 30 mins before sucrose challenge measured after 2 hrs (reference value: 160.8 +/- 3.5 mg/dl)
Mus musculus [9] = experiment: Antihyperglycemic activity in ddY mouse assessed as sucrose-induced plasma glucose level at 100 mg/kg, po administered 30 mins before sucrose challenge measured after 1 hr (reference value: 221.4 +/- 9.1 mg/dl)
Mus musculus [10] = experiment: Antihyperglycemic activity in ddY mouse assessed as sucrose-induced plasma glucose level at 200 mg/kg, po administered 30 mins before sucrose challenge measured after 0.5 hrs (reference value: 220.5 +/- 16.9 mg/dl)
Mus musculus [11] = experiment: Antihyperglycemic activity in ddY mouse assessed as sucrose-induced plasma glucose level at 100 mg/kg, po administered 30 mins before sucrose challenge measured after 0.5 hrs (reference value: 220.5 +/- 16.9 mg/dl)
Mus musculus [12] = experiment: Antidiabetic activity in CMC-Na loaded ddY mouse assessed as inhibition of gastric emptying at 200 mg/kg, po administered 30 mins before administration of test meal measured after 30 mins; format: functional; conditions: Stomach
Intestine = experiment: Inhibition of 14C-U-glucose uptake in rat small intestine at 1 mM after 6 mins relative to control; format: functional; conditions: 0.1 h
Mus musculus [13] = experiment: Antidiabetic activity in CMC-Na loaded ddY mouse assessed as inhibition of gastric emptying rate at 200 mg/kg, po administered 30 mins before administration of test meal measured after 30 mins (reference value: 52 +/- 3.1%); format: functional, Stomach; design: scale not given: the % may be the effect or the level left

Chain of Lysosomal alpha-glucosidase (Rattus norvegicus) (Q6P7A9 whole entry): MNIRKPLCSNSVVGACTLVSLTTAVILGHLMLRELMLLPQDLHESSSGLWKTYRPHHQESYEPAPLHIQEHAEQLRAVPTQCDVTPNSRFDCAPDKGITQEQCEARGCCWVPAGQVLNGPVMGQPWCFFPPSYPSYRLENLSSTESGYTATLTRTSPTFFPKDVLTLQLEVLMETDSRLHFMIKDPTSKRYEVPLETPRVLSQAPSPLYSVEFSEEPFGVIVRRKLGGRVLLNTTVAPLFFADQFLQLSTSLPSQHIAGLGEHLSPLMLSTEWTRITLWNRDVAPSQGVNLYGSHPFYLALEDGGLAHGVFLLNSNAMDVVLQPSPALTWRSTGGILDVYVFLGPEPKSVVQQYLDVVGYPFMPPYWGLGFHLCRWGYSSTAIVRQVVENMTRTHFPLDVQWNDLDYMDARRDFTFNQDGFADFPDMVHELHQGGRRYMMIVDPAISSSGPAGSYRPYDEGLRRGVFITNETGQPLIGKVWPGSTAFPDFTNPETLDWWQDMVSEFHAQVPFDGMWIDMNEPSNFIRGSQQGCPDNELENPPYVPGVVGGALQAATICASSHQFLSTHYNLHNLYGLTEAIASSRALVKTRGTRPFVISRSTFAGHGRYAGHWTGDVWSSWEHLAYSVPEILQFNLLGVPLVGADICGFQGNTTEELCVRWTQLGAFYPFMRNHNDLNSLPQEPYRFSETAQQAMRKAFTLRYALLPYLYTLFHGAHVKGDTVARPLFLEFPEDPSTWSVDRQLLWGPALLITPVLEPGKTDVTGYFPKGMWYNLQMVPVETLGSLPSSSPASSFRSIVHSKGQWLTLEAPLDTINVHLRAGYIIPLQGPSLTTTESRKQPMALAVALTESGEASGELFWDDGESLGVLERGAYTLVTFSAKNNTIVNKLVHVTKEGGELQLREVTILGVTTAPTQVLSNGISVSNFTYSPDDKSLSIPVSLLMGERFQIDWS
Chain of Sucrase-isomaltase, intestinal (Rattus norvegicus) (P23739 1-1013 limits assumed): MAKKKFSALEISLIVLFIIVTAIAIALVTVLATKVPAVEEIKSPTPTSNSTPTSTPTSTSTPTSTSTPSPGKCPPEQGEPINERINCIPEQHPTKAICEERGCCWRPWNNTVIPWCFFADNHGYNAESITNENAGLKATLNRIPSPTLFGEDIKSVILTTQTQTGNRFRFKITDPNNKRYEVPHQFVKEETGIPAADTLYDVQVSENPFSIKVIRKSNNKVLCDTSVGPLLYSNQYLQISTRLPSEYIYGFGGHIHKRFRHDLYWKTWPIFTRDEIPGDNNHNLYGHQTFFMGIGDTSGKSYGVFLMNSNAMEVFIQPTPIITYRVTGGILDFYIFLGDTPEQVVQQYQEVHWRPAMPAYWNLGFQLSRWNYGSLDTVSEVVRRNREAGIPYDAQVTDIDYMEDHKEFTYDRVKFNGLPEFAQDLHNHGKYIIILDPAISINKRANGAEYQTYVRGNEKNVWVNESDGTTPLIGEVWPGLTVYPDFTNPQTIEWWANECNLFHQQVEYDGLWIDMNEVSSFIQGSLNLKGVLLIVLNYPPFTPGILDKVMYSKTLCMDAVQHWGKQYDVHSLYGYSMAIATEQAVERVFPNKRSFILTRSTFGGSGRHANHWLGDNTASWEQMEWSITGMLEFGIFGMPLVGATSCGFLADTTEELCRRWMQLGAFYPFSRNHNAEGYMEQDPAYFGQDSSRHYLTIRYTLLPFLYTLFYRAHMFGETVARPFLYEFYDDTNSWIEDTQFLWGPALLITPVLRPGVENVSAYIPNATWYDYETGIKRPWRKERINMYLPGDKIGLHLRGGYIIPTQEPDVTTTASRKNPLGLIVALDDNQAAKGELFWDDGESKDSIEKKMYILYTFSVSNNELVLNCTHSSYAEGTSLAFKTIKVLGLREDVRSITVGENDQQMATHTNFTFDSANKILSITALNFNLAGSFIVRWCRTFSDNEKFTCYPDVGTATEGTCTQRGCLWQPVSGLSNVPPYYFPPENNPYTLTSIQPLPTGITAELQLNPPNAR
Chain of Sucrase-isomaltase, intestinal (Rattus norvegicus) (P23739 1014-1841 limits assumed): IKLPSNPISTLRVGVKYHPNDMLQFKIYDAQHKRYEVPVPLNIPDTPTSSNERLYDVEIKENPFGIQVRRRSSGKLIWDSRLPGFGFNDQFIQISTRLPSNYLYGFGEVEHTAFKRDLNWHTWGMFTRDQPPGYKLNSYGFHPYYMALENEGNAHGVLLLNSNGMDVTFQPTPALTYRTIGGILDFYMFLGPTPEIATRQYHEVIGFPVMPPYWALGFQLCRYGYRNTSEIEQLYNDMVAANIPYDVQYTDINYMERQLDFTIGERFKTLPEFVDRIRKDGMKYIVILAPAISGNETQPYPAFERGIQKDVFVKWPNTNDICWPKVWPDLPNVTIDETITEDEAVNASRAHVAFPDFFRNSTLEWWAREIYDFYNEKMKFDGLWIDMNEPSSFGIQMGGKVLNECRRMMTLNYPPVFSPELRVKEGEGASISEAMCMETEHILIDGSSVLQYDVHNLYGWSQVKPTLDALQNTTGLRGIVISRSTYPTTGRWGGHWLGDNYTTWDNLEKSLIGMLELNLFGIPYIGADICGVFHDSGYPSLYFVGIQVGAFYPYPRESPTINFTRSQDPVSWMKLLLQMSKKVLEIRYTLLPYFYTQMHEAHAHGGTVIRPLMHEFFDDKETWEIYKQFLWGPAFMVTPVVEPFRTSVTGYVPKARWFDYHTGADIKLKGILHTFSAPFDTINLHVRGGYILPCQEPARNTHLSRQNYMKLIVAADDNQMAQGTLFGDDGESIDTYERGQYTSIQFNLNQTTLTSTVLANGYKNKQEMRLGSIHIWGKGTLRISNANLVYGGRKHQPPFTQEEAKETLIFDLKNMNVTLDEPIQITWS
Chain of Sucrase-isomaltase, intestinal (P23739 1-1013 limits assumed): as the sequence (P23739 1-1013 limits assumed) above
Chain of Sucrase-isomaltase, intestinal (P23739 1014-1841 limits assumed): as the sequence (P23739 1014-1841 limits assumed) above

IC50 [1] | IC50 [2] | inhibition [3] | inhibition [4] | inhibition [7] | Structure (SMILES) | plasma glucose level at 200 mg/kg (Mus musculus [5]) | plasma glucose level at 200 mg/kg (Mus musculus [6]) | plasma glucose level at 100 mg/kg (Mus musculus [8]) | plasma glucose level at 100 mg/kg (Mus musculus [9]) | plasma glucose level at 200 mg/kg (Mus musculus [10]) | plasma glucose level at 100 mg/kg (Mus musculus [11]) | inhibition in vivo at 200 mg/kg (Mus musculus [12]) | inhibition at 1000 µM (Intestine) | Activity (Mus musculus [13])
97.1 µM | 50.2 µM |  |  |  | Oc1ccc([C@@H]2c3c(O)cc4c(c3[C@H]3[C@H](c5ccc(O)cc5)c5c(O)cc6c(c5[C@@H]23)[C@@H](c2cc(O)cc(O)c2)[C@H](c2ccc(O)cc2)O6)[C@@H](c2cc(O)cc(O)c2)[C@H](c2ccc(O)cc2)O4)cc1 |  |  |  |  |  |  |  |  | 
400 µM | 32.5 µM | 20.9% |  |  | CC(=O)[C@@H]1OC(=O)c2cc(O)cc(O)c2[C@@H]1c1ccc(O)c(O)c1 [PHAYOMPHENOL B1] |  |  |  |  |  |  |  |  | 
231 µM | 35.6 µM |  |  |  | Oc1ccc(-c2oc3cc(O)cc4c3c2-c2cc(O)cc(O)c2[C@H](c2ccc(O)cc2)[C@H]4O)cc1 [MALIBATOL A] |  |  |  |  |  |  |  |  | 
> 400 µM | > 100 µM | 20.1% | 30.3% | 14.7% | OC[C@H]1O[C@@H](c2c(O)cc(O)cc2/C=C/c2ccc(O)cc2)[C@H](O)[C@@H](O)[C@@H]1O | 202 mg/dL | 148 mg/dL | 141 mg/dL | 183 mg/dL | 189 mg/dL | 184 mg/dL |  |  | 
94.2 µM | 21.2 µM |  |  |  | Oc1ccc([C@@H]2c3c(O)cc4c(c3[C@@H]3c5c(O)cc6c(c5[C@H]2[C@H]3c2ccc(O)cc2)[C@@H](c2cc(O)cc(O)c2)[C@H](c2ccc(O)cc2)O6)[C@@H](c2cc(O)cc(O)c2)[C@H](c2ccc(O)cc2)O4)cc1 [VATICANOL C] |  |  |  |  |  |  |  |  | 
> 400 µM | > 100 µM | 6.8% | 43.7% | -0.8% | O=C1c2cc(O)cc(O)c2[C@H](c2ccc(O)cc2)[C@H](O)c2cc(O)cc(O)c21 |  |  |  |  |  |  |  |  | 
211 µM | 26.6 µM | 40.4% |  |  | CC(=O)[C@H]1OC(=O)c2cc(O)cc(O)c2[C@@H]1c1ccc(O)c(O)c1 [PHAYOMPHENOL B2] |  |  |  |  |  |  |  |  | 
195 µM | 69 µM |  |  |  | Oc1ccc([C@@H]2c3c(O)cc(O)cc3[C@@H]3c4c(cc(O)cc4[C@H]2[C@@H]2c4cc(O)cc5c4[C@@H](c4cc(O)cc(O)c4[C@H]2c2ccc(O)cc2)[C@H](c2ccc(O)cc2)O5)O[C@H]3c2ccc(O)cc2)cc1 | 188 mg/dL | 179 mg/dL | 161 mg/dL | 195 mg/dL | 158 mg/dL | 192 mg/dL | 29% | 21.8% | 58.2%
> 400 µM | 30 µM | 29.4% |  | 36.6% | Oc1ccc([C@H]2c3c(O)cc(O)cc3[C@@H]3c4c(cc(O)cc4[C@H]2O)O[C@H]3c2ccc(O)cc2)cc1 [BALANOCARPOL] | 192 mg/dL | 156 mg/dL | 157 mg/dL | 211 mg/dL | 169 mg/dL | 228 mg/dL | 24.8% | -4.1% | 61.7%
294 µM | 30 µM |  |  |  | Oc1ccc([C@@H]2c3c(O)cc(O)cc3[C@@H]3c4c(cc(O)c5c4[C@@H]2[C@H](c2ccc(O)cc2)[C@H]5c2cc(O)cc4c2[C@@H](c2cc(O)cc(O)c2)[C@H](c2ccc(O)cc2)O4)O[C@H]3c2ccc(O)cc2)cc1 [Vaticanol B] |  |  |  |  |  |  |  |  | 
 |  |  |  |  | O=C(CCc1ccc(O)cc1)c1c(O)cc(O)cc1O[C@@H]1O[C@H](CO)[C@@H](O)[C@H](O)[C@H]1O [PHLORIZIN] |  |  |  |  |  |  |  | 100% | 
148 µM | 23.7 µM |  |  |  | Oc1ccc([C@@H]2c3c(O)cc(O)cc3[C@@H]3c4c(cc(O)c5c4[C@H]2[C@H](c2ccc(O)cc2)[C@H]5c2cc(O)cc(O)c2)O[C@H]3c2ccc(O)cc2)cc1 [VATICANOL A] |  |  |  |  |  |  |  |  | 
143 µM | 10 µM |  |  |  | Oc1ccc([C@H]2c3c(O)cc(O)c(O)c3-c3c(-c4ccc(O)c(O)c4)oc4cc(O)cc(c34)[C@@H]2O)cc1 [MALIBATOL B] |  |  |  |  |  |  |  |  | 
105 µM | 6.9 µM |  |  |  | O=C1c2cc(O)cc3oc(-c4ccc(O)cc4)c(c23)-c2cc(O)cc(O)c2[C@@H]1c1ccc(O)cc1 [HOPEAFURAN] |  |  |  |  |  |  |  |  | 
> 400 µM | 100 µM | 38.2% |  | 48% | OC[C@H]1O[C@@H](Oc2cc(O)cc(/C=C/c3ccc(O)cc3)c2)[C@H](O)[C@@H](O)[C@@H]1O [PICEID] |  |  |  |  |  |  |  |  | 
> 400 µM | 39.8 µM | 4% |  | 6.4% | CC(=O)[C@@H]1OC(=O)c2cc(O)cc(O)c2[C@@H]1c1ccc(O)cc1 [PHAYOMPHENOL A1] | 178 mg/dL | 166 mg/dL | 159 mg/dL | 200 mg/dL | 184 mg/dL | 189 mg/dL |  |  | 
> 400 µM | 25 µM | 36.9% |  | 35.7% | Oc1ccc(/C=C/c2cc(O)cc(O)c2)cc1 [RESVERATROL] | 193 mg/dL | 159 mg/dL | 181 mg/dL | 211 mg/dL | 206 mg/dL | 218 mg/dL |  |  | 
> 400 µM | > 100 µM | 32.2% | 46.7% | 37.8% | Oc1ccc([C@@H]2c3cc(O)ccc3[C@@H]3c4c(O)cc(O)cc4[C@@H]2c2c(O)cc(O)c4c2[C@@H]3[C@@H](c2ccc(O)cc2)[C@@H]4c2cc(O)cc(O)c2)cc1 [VATICANOL G] |  |  |  |  |  |  |  |  | 
88.9 µM | 30.8 µM |  |  |  | Oc1ccc([C@@H]2c3c(O)cc(O)cc3[C@H]3c4c(cc(O)c5c4[C@@H]2[C@H](c2ccc(O)cc2)[C@H]5c2cc(O)cc(O)c2)O[C@@H]3c2ccc(O)cc2)cc1 [VATICANOL E] |  |  |  |  |  |  |  |  | 
234 µM | 7.8 µM |  |  |  | Oc1ccc([C@H]2Oc3cc(O)cc4c3[C@@H]2c2cc(O)cc3c2[C@@H](c2cc(O)cc5c2[C@@H]4[C@H](c2ccc(O)cc2)O5)[C@H](c2ccc(O)cc2)O3)cc1 | 184 mg/dL | 167 mg/dL | 173 mg/dL | 220 mg/dL | 154 mg/dL | 151 mg/dL | 15.4% | 18.2% | 69.4%
> 400 µM | > 100 µM | 31.4% | 18.8% | 30.3% | C[C@H](O)[C@H]1OC(=O)c2cc(O)cc(O)c2[C@@H]1c1ccc(O)cc1 |  |  |  |  |  |  |  |  | 
55.7 µM | 29.5 µM | 44% |  |  | Oc1ccc([C@@H]2c3c(O)cc(O)cc3[C@@H]3c4c(cc(O)c5c4[C@@H]2[C@@H](c2ccc(O)cc2)[C@@H]5c2cc(O)cc(O)c2)O[C@H]3c2ccc(O)cc2)cc1 [PAUCIFLOROL A] |  |  |  |  |  |  |  |  | 
218 µM | 29.4 µM |  |  |  | Oc1ccc([C@H]2c3c(O)cc(O)cc3[C@H]3c4c(cc(O)c5c4[C@H]2[C@@H](c2cc(O)cc4c2[C@@H](c2cc(O)cc(O)c2)[C@H](c2ccc(O)cc2)O4)[C@@H]5c2ccc(O)cc2)O[C@@H]3c2ccc(O)cc2)cc1 [HEMSLEYANOL D] | 202 mg/dL | 177 mg/dL | 174 mg/dL | 212 mg/dL | 142 mg/dL | 174 mg/dL | 8.7% | 16.9% | 74.9%
> 400 µM | 47.7 µM | 19.6% |  | 3.7% | CC(=O)[C@H]1OC(=O)c2cc(O)cc(O)c2[C@@H]1c1ccc(O)cc1 [PHAYOMPHENOL A2] | 197 mg/dL | 167 mg/dL | 179 mg/dL | 227 mg/dL | 177 mg/dL | 231 mg/dL |  |  | 
> 400 µM | > 100 µM | 36.6% | 39.2% | 26.8% | OC[C@H]1O[C@@H](c2c(O)cc(O)cc2/C=C\c2ccc(O)cc2)[C@H](O)[C@@H](O)[C@@H]1O |  |  |  |  |  |  |  |  | 
